In patent US20250127775A1, “METHOD OF INDUCING DENDRITIC AND SYNAPTIC GENESIS IN NEURODE[…] DISEASES” (priority 2018, published 2025):

Key:
[1] = test system: rat neurons; test: SEM images of rat neurons after exposure to toxic amyloid peptide (FIG. 1); format: cell-based; settings: exposure for 4 days to 250 micro molar toxic peptide
Text: At this resolution one can see copious dendritic structures, the round dark circles. The resolution is not high enough to visualize synaptic connections. The image labeled A is of rat neurons after exposure for 4days to 250 micro molar concentrations of toxic peptide. […] This model emulates what is seen in the human versions of AD disease.

[2] = test system: cortical rat neurons; test: Dendrite and synaptic connections of rat cortical neurons after exposure to tryptamines (FIG. 2); format: cell-based; settings: 24 hours of exposure, FIG. 2 left to right
Text: The effect is dramatic and fast even with very small doses of the compounds which is a desirable profile for a therapeutic molecule. Looking at FIG. 2 from left to right, it is apparent that LSD>DMT>DOI>Vehicle with regards to dendritic and synaptic generation. Potential therapeutics that can be used in the present invention are tryptamines such as tryptamines and phenethylamines selected from the group, N, N-dimethyltryptamine, 5-methoxy-N, N-dimethyltryptamine, Ketamine, noribogaine, psilocin 3,4-methylenedioxymethamphetamine, mescaline, psilocin, and psilocybin. The dose concentration will vary by molecule type but can range for 0.00001 to 250 milligrams to kilograms (mg/kg) of body weight with 0.01 to 50 mg/kg being preferred.

| Compound | degradation of the dendrites (and synaptic connections) [1] | rank order with regards to dendritic and synaptic generation [2] |
| --- | --- | --- |
| A 42 amyloid proteins: toxic amyloid protein used to compromise rat neurons, dendrites and synaptic connections | significant degradation of the dendrites |  |
| COc1cc(CC(C)N)c(OC)cc1I (stereo not drawn) [DOI] |  | LSD>DMT>DOI>Vehicle |
| CN(C)CCc1c[nH]c2ccccc12 [DMT, N, N-dimethyltryptamine] |  | LSD>DMT>DOI>Vehicle |
